Like-named read-outs stand apart in the source and are kept apart here.

What all share (type): in vivo
The test system of assay [1] is barnyardgrass (Echinochloa crus-galli). In words: Test A postemergence. The note with it: Echinochloa crus-galli, post-emergence, 240 h; for pest or weed control at 125 g/ha: 125 g ai/ha. In a few lines: (§1)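 Compounds were formulated in a non-phytotoxic solvent mixture with surfactant and applied as a preemergence directed soil spray after seeding, or sprayed postemergence over plants 2 to 10 cm tall at the one- to two-leaf stage. Evaluation after about 10 d compared treated with untreated controls, using a scale from 0 (no effect) to 100 (complete control).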

Assay [2] relates to Galium (catchweed bedstraw, Galium aparine). Nature of the assay: Test A postemergence. Conditions: Galium, post-emergence, 240 h; for pest or weed control at 125 g/ha: 125 g ai/ha. In outline:
as §1

The test system of another assay is corn (Zea mays). In words: Test A postemergence. The note with it: Zea mays, post-emergence, 240 h; for Corn plant response rating (crop injury, 0 = no effect, 100 = complete kill) at 125 g/ha: Postemergence, visual injury after approximately 10 d, 0 to 100 scale where 0 is no effect and 100 is complete control. In outline: as §1
For assay [3], the system named is ragweed (common ragweed, Ambrosia elatior). Nature of the assay: Test A postemergence. The note with it: Ambrosia artemisiifolia, post-emergence, 240 h; for pest or weed control at 125 g/ha: 125 g ai/ha. In a few lines: as §1
Assay [4] concerns barnyardgrass (Echinochloa crus-galli). In words: Test A preemergence. The note with it: Echinochloa crus-galli, pre-emergence, 240 h; for pest or weed control at 125 g/ha: 125 g ai/ha, Preemergence, visual injury rating after approximately 10 d, read-out: Barnyardgrass plant response rating (0 to 100 scale, 0 is no effect, 100 is complete control); for pest or weed control at 500 g/ha: 500 g ai/ha, preemergence, visual injury rating about 10 d after treatment, 0 to 100 scale (0 no effect, 100 complete control), read-out: Barnyardgrass plant response rating. In a few lines: as §1

The test system of assay [5] is ryegrass, Italian (Italian ryegrass, Lolium multiflorum). In words: Test A preemergence. Conditions: Lolium multiflorum, pre-emergence, 240 h; for pest or weed control at 125 g/ha: 125 g ai/ha; for pest or weed control at 500 g/ha: 500 g ai/ha, visual injury rating about 10 d after treatment, 0 to 100 scale (0 no effect, 100 complete control). In a few lines: as §1
A further assay deals with Kochia (Kochia scoparia). In words: Test A preemergence. The note with it: Bassia scoparia, pre-emergence, 240 h; for pest or weed control at 125 g/ha: 125 g ai/ha; for pest or weed control at 500 g/ha: 500 g ai/ha, visual injury rating about 10 d after treatment, 0 to 100 scale (0 no effect, 100 complete control). In a few lines:
as §1

For assay [6], the system named is pigweed (Amaranthus retroflexus). In words: Test A preemergence. Conditions: Amaranthus retroflexus, pre-emergence, 240 h; for pest or weed control at 125 g/ha: 125 g ai/ha; for pest or weed control at 500 g/ha: 500 g ai/ha, visual injury rating about 10 d after treatment, 0 to 100 scale (0 no effect, 100 complete control).
The test system of assay [7] is giant foxtail (Setaria faberii). In words: Test A preemergence. The note with it: Setaria faberi, pre-emergence, 240 h; for pest or weed control at 125 g/ha: 125 g ai/ha, Preemergence, visual injury rating after approximately 10 d, read-out: Foxtail, Giant plant response rating (0 to 100 scale, 0 is no effect, 100 is complete control); for pest or weed control at 500 g/ha: 500 g ai/ha, preemergence, visual injury rating about 10 d after treatment, 0 to 100 scale (0 no effect, 100 complete control), read-out: Foxtail, Giant plant response rating. In a few lines:
as §1

The test system of assay [8] is ragweed (common ragweed, Ambrosia elatior). In words: Test A preemergence. The note with it: Ambrosia artemisiifolia, pre-emergence, 240 h; for pest or weed control at 125 g/ha: 125 g ai/ha; for pest or weed control at 500 g/ha: 500 g ai/ha, visual injury rating about 10 d after treatment, 0 to 100 scale (0 no effect, 100 complete control). In a few lines: as §1
Assay [9] concerns barnyardgrass (Echinochloa crus-galli). In words: Test B flooded paddy test. Conditions: Echinochloa crus-galli, 250 g ai/ha, Flood, read-out: Barnyardgrass plant response rating. In outline:
(§2)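 Plants at 2-leaf stage flooded to 3 cm above soil, with compounds applied directly to paddy water and that depth maintained. Plants kept in greenhouse 13–15 d. Visual rating versus controls on a 0 (no effect) to 100 (complete control) scale.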

Assay [10] concerns sedge, umbrella (small-flower umbrella sedge, Cyperus difformis). Nature of the assay: Test B flooded paddy test. The note with it: Cyperus difformis, 250 g ai/ha, Flood, read-out: Sedge, Umbrella plant response rating. In a few lines: as §2
The test system of a further assay is rice (Oryra sativa). In words: Test B flooded paddy test. The note with it: Oryza sativa, 250 g ai/ha, Flood, read-out: Rice plant response rating. In outline: as §2
Assay [11] deals with ducksalad (Heteranthera limosa). Nature of the assay: Test B flooded paddy test. Conditions: Heteranthera limosa, 250 g ai/ha, Flood, read-out: Ducksalad plant response rating. In outline: as §2
[12] abbreviates: preemergence, read-out: Ryegrass, Italian plant response rating.
Where [13] appears, read: preemergence, read-out: Kochia plant response rating.
The mark [14] stands for this setting: preemergence, read-out: Pigweed plant response rating.
Where [15] appears, read: preemergence, read-out: Ragweed plant response rating.
[16] abbreviates: 0 to 100 scale where 0 is no effect and 100 is complete control.
The mark [17] stands for this setting: Postemergence, visual injury after approximately 10 d, 0 to 100 scale where 0 is no effect and 100 is complete control, read-out: Plant response rating, Barnyardgrass.
Where [18] appears, read: Postemergence, visual injury after approximately 10 d, 0 to 100 scale where 0 is no effect and 100 is complete control, read-out: Plant response rating, Galium.
Where [19] appears, read: Postemergence, visual injury after approximately 10 d, 0 to 100 scale where 0 is no effect and 100 is complete control, read-out: Plant response rating, Ragweed.
Setting [20] is: Preemergence, visual injury rating after approximately 10 d, read-out: Ryegrass, Italian plant response rating (0 to 100 scale, 0 is no effect, 100 is complete control).
The mark [21] stands for this setting: Preemergence, visual injury rating after approximately 10 d, read-out: Kochia plant response rating (0 to 100 scale, 0 is no effect, 100 is complete control).
Setting [22] is: Preemergence, visual injury rating after approximately 10 d, read-out: Pigweed plant response rating (0 to 100 scale, 0 is no effect, 100 is complete control).
Setting [23] is: Preemergence, visual injury rating after approximately 10 d, read-out: Ragweed plant response rating (0 to 100 scale, 0 is no effect, 100 is complete control).
Where [24] appears, read: scale of 0 to 100 where 0 is no effect and 100 is complete control.

For the compound `Cc1ccc([C@H]2CN(C)C(=O)[C@]2(O)C(=O)Nc2cccc(F)c2F)cc1` (racemic) [Compound 1059], the pest or weed control at 125 g/ha in assay [1] (postemergence, visual injury on 0 to 100 scale (0 no effect, 100 complete control), approx. 10 d, read-out: Barnyardgrass plant response rating) worked out at 40%; in [2] (postemergence, visual injury on 0 to 100 scale (0 no effect, 100 complete control), approx. 10 d, read-out: Galium plant response rating) it was 0%; in assay [3] (postemergence, visual injury on 0 to 100 scale (0 no effect, 100 complete control), approx. 10 d, read-out: Ragweed plant response rating), 0%; in assay [4], 70%; in assay [5] (preemergence, 0 to 100 scale where 0 is no effect and 100 is complete control, approx. 10 d, read-out: Ryegrass, Italian plant response rating), 0%; in the assay with Kochia (Kochia scoparia) (preemergence, 0 to 100 scale where 0 is no effect and 100 is complete control, approx. 10 d, read-out: Kochia plant response rating), 0%. Besides, the pest or weed control at 125 g/ha stood at 0% in assay [6] (preemergence, 0 to 100 scale where 0 is no effect and 100 is complete control, approx. 10 d, read-out: Pigweed plant response rating); 70% in assay [7]; 0% in assay [8] (preemergence, 0 to 100 scale where 0 is no effect and 100 is complete control, approx. 10 d, read-out: Ragweed plant response rating). The pest or weed control at 500 g/ha in [1] (500 g ai/ha, postemergence, 0 to 100 scale, 0 is no effect, 100 is complete control, read-out: Barnyardgrass plant response rating) worked out at 90%; in assay [2] (500 g ai/ha, postemergence, 0 to 100 scale, 0 is no effect, 100 is complete control, read-out: Galium plant response rating), 0%; in assay [3] (500 g ai/ha, postemergence, 0 to 100 scale, 0 is no effect, 100 is complete control, read-out: Ragweed plant response rating) it was 0%; in [4] it was 90%; in [5] (setting [12]), 0%; in the assay on Kochia (Kochia scoparia) (setting [13]), 20%. For the same compound, the pest or weed control at 500 g/ha in assay [6] (setting [14]) turned out to be 0%; in assay [7] it was 80%; in assay [8] (setting [15]) it was 30%. In the assay on corn (Zea mays) (125 g ai/ha, postemergence, visual injury on 0 to 100 scale (0 no effect, 100 complete control), approx. 10 d, read-out: Corn plant response rating), the plant injury at 125 g/ha turned out to be 0%. For the same compound, the plant injury at 500 g/ha in the assay with corn (Zea mays) (500 g ai/ha, postemergence, 0 to 100 scale, 0 is no effect, 100 is complete control, read-out: Corn plant response rating) came out at 20%. For the same compound, the pest or weed control at 250 g/ha (in [9] (setting [16]); in assay [10] (setting [16]); in the assay with rice (Oryra sativa) (setting [16]); in [11] (setting [16])) was 0% each time.

On to `CN1C[C@H](c2cc(F)cc(F)c2)[C@@H](C(=O)Nc2ccc(C(F)(F)F)cc2)C1=O` [Compound 968], for which the pest or weed control at 125 g/ha in assay [1] (setting [17]) is 20%; in assay [2] (setting [18]), 0%; in [3] (setting [19]) it was 0%; in assay [4] it was 20%; in [5] (setting [20]), 0%; in the assay on Kochia (Kochia scoparia) (setting [21]) it was 0%. Moreover, the pest or weed control at 125 g/ha in assay [6] (setting [22]) worked out at 0%; in assay [7], 30%; in [8] (setting [23]), 0%. The same compound yielded a Corn plant response rating (crop injury, 0 = no effect, 100 = complete kill) at 125 g/ha in the assay with corn (Zea mays) (125 g ai/ha) of 0%. The pest or weed control at 500 g/ha in assay [4] stood at 60%; in assay [5] (setting [12]), 0%; in the assay on Kochia (Kochia scoparia) (setting [13]), 0%; in [6] (setting [14]), 0%; in assay [7], 60%; in assay [8] (setting [15]), 0%. Further, the pest or weed control at 250 g/ha in [9] (setting [24]) stood at 0%; in assay [10] (setting [24]), 0%; in the assay on rice (Oryra sativa) (setting [24]), 0%; in assay [11] (setting [24]), 30%.

As to `CN1C[C@H](c2cc(F)cc(F)c2)[C@@H](C(=O)Nc2cc(O)ccc2F)C1=O` [Compound 992], the pest or weed control at 125 g/ha (in assay [1] (setting [17]); in assay [2] (setting [18]); in [3] (setting [19]); in assay [4]; in [5] (setting [20]); in the assay with Kochia (Kochia scoparia) (setting [21])) was 0% each time. In addition, the pest or weed control at 125 g/ha in assay [6] (setting [22]), in assay [7] and in assay [8] (setting [23]) was 0% in each case. For the same compound, the Corn plant response rating (crop injury, 0 = no effect, 100 = complete kill) at 125 g/ha with corn (Zea mays) (125 g ai/ha) is 0%. In addition, the pest or weed control at 500 g/ha (in assay [4]; in assay [5] (setting [12]); with Kochia (Kochia scoparia) (setting [13]); in assay [6] (setting [14]); in assay [7]; in assay [8] (setting [15])) was 0% in each case. Besides, the pest or weed control at 250 g/ha (in assay [9] (setting [24]); in assay [10] (setting [16]); in the assay on rice (Oryra sativa) (setting [24]); in [11] (setting [24])) was 0% throughout.

These data come from patent publication US12077503B2, “Substituted cyclic amides and their use as herbicides” (FMC CORPORATION, priority 2015, dated 2024).
